Experimental data as given in PMC6797808, “Fucosylated inhibitors of recently identified bangle lectin from Photorhabdus asymbiotica” (Scientific Reports, 2019).
In brackets after ≈: the same amount, converted by molar mass. Marks after values point to notes of the source that are not given here.

Tests used:
PHL [1] = target: T1, PHL (Photorhabdus asymbiotica, UniProt C7BLE4); test: Hemagglutination inhibition assay with PHL (papain-treated human RBCs O); type: cell-based; conditions: for MIC (minimal inhibitory concentration, hemagglutination by PHL): RBC O, two independent measurements; for PotencyL-Fuc / β L-Fuc (affinity improvement factor): hemagglutination; for PotencyL-Fuc: MIC L-fucose / MIC ligand; for β L-Fuc (affinity improvement factor): MICbasic unit/(valency × MICligand), basic unit L-Fuc
T1 sequence (C7BLE4 entry or part of it): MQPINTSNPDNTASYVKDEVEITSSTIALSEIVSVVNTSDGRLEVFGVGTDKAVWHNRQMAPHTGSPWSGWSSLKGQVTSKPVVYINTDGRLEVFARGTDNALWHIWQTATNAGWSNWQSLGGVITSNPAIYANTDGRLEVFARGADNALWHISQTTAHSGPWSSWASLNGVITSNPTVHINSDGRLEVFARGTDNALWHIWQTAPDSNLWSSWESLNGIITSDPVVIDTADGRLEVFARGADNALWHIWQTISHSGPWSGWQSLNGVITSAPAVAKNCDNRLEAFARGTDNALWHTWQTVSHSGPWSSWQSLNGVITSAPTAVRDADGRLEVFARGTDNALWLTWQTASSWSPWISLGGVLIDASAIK
Procedure: The set of potential ligands 1–10 with different levels of fucosylation was tested, and their inhibition potency on hemagglutination by PHL was assessed (Table 1, Fig. 2). […] To assess the contribution of valency to the affinity increase, an affinity improvement factor β was calculated as the relationship MICbasic unit/(valency × MICligand).
Human red blood cells (RBCs) O were processed according to previously published work[16]. In brief, RBCs O treated with sodium citrate were washed four times by PBS buffer (137 mM NaCl, 2.7 mM KCl, 8 mM Na2HPO4, 1.47 mM KH2PO4, pH 7.4), diluted to 50% by PBS with 0.005% (w/w) sodium azide and treated by 0.1% papain for the duration of 30 minutes.
Hemagglutination inhibition assay was performed for specificity and semi-quantitative affinity of the PHL interaction with the compounds. All carbohydrate inhibitors in 50 mM starting concentration were serially diluted in the PBS buffer and used for a determination of the lowest inhibiting concentration. As a blank, the PBS buffer supplemented with the appropriate amount of DMSO was used in order to exclude potential interference with the interaction. The individual samples were mixed with the lectin in concentration 2 mg/ml in a 5 μl:5 μl ratio. Thereafter, 10 μl of 10% RBCs O in PBS buffer was added, thoroughly mixed and incubated for 10 minutes at room temperature. Following incubation, the mixture was again mixed and the reaction was observed on microscope slides using Levenhuk 2L NG microscope with Levenhuk D2L digital camera (Levenhuk, USA). Imagines were obtained via software ToupView for Windows (Levenhuk). The positive (PHL without inhibitor) and negative control (reaction without PHL) were prepared and processed in the same way using the appropriate volume of PBS buffer instead of the not included components. The lowest concentration of inhibitor able to inhibit agglutination was determined and compared with the standard (L-fucose). Minimal inhibitory concentrations (MIC) of synthesised inhibitors were determined from two independent measurements.

PHL [2] = target: T1, PHL; test: SPR competitive inhibition of PHL binding to α-L-fucoside sensor chip; conditions: for IC50: 25 °C, three independent measurements; for β L-Fuc (affinity improvement factor): IC50,basic unit/(valency × IC50,ligand), basic unit L-Fuc; for PotencyL-Fuc: IC50 L-fucose / IC50 ligand
Procedure: To analyse the competitive inhibition of PHL binding to a multivalent surface, the surface plasmon resonance (SPR) technique was employed. A sensor chip presenting α-L-fucopyranoside residues was treated with a constant concentration of PHL, while an increasing concentration of the ligands was used to determine IC50 (Table 2, Fig. 3). […] To assess the contribution of valency to the affinity increase, an affinity improvement factor β was calculated as the relationship IC50,basic unit/(valency × IC50,ligand)[30].
Surface plasmon resonance (SPR) experiments were performed on a BIAcore T200 instrument (GE Healthcare, UK) at 25 °C, using buffer A supplemented with 0.05% Tween 20 as a running buffer. α-L-fucoside was immobilized onto CM5 sensor chip (GE Healthcare, UK) covered with a carboxymethylated dextran matrix. The sensor chip surface was activated with N-ethyl-N-(3-dimethylaminopropyl)carbodiimide/N-hydroxysuccinimide solution and then coated with streptavidin using the manufacturer’s standard protocol using HBS buffer (10 mM HEPES, 150 mM NaCl, 0.05% Tween 20, pH 7. 5). Unreacted groups were blocked with 1 M ethanolamine-HCl, pH 8.5. Biotinylated carbohydrate (biotinilated monomeric probes, Lectinity, Russia) was injected onto particular measuring channel and pure biotin on blank channel at a flow rate of 5 μl/min.
SPR inhibition measurements were carried out on measuring channel with L-fucoside at a flow rate of 5 µl/min. PHL was diluted to a concentration of 20 μg/ml by the buffer A supplemented with 0.05% Tween 20, mixed 1:1 (v/v) with various concentrations of inhibitors (500–5 μM) in the same buffer and injected onto the sensor chip. The response of lectin bound to the sugar surface at equilibrium was plotted against the concentration of inhibitor in order to determine IC50 (concentration of inhibitor resulting in 50% inhibition of binding). As IC50 is not a constant and depends on the experimental set-up, a parameter called potency was used for characterization. The potency of a tested inhibitor is the ratio of IC50 of a chosen standard inhibitor (in this case L-fucose) and the inhibitor in question. Pure PHL lectin was used as a control (0% inhibition) and channel with pure biotin served as a blank. IC50 was determined from triplicates.

PHL [3] = target: T1, PHL; test: Isothermal titration calorimetry of PHL with ligands; type: binding; conditions: for Potency L-Fuc / β L-Fuc (affinity improvement factor): ITC; for Potency L-Fuc: KD L-fucose / KD ligand; for β L-Fuc (affinity improvement factor): KD,basic unit/(valency × KD,ligand), basic unit L-Fuc
Text: The binding of PHL to different α-L-fucoside compounds was further characterized by isothermal titration calorimetry (ITC), enabling determination of the complete thermodynamic profile of the molecular interactions (Table 3, Fig. 4). […] Because of this, it was not possible to evaluate the data, despite the obvious interaction. The dendrimers also cross-linked/aggregated the protein as with calixarenes, however the curves provided clear outcomes with an affinity in the low micromolar range. The dissociation constants (KD) of all dendrimers correlate with their valency – the higher number of fucose, the more decreased KD. […] The stoichiometry value n corresponds to the number of terminal fucoses per ligand molecule. The n value decreases from 4 to 1 as the number of fucose units increases from 1 to 12 (Table 3).
PHL protein in buffer A was equilibrated at room temperature at least for 30 min before ITC measurement. All ITC experiments were performed using ITC200 calorimeter (Malvern Panalytical, UK) at 25 °C. Carbohydrate ligands dissolved in buffer A were used at different concentrations. Protein in the calorimeter cell (50 μM) was titrated by consecutive additions (2 μl) of the ligand (1.5–5 mM) in the syringe while stirring at 1000 rpm. Integrated heat effects were analysed by nonlinear regression using a single-site binding model and global fitting in Origin 7 software (Microcal Instruments)[37]. The thermodynamic parameters of synthesised inhibitors were determined from two independent measurements.

Row | SMILES | MIC (minimal inhibitory concentration, hemagglutination by PHL) (PHL [1]) | PotencyL-Fuc (PHL [1]) | PotencyL-Fuc (PHL [1]; listed as difucoside 5) | β L-Fuc (affinity improvement factor) (PHL [1]) | IC50 (PHL [2]) | β L-Fuc (affinity improvement factor) (PHL [2]) | PotencyL-Fuc (PHL [2]) | Kd (PHL [3]; ITC at 25 °C) | −TΔS (PHL [3]; ITC at 25 °C) | −ΔG (PHL [3]; ITC at 25 °C) | −ΔH (PHL [3]; ITC at 25 °C) | n (stoichiometry) (PHL [3]; ITC at 25 °C, two independent measurements) | Potency L-Fuc (PHL [3]) | β L-Fuc (affinity improvement factor) (PHL [3]) | n (stoichiometry), fixed during the fitting procedure (PHL [3]; ITC at 25 °C, fixed value based on α-Me-Fuc measurement and PHL/BGH crystal structure)
1 | C[C@@H]1OC(CCCCC2O[C@@H](C)[C@@H](O)[C@@H](O)[C@@H]2O)[C@@H](O)[C@H](O)[C@@H]1O (stereo partly drawn) [Difucoside 5, 1,4-bis(fucopyranosyl)butane] | 200 µM (≈ 70.1 µg/mL) | 15.6 | 16 | 7.8 | 4.18 ± 0.42 µM | 43 | 86 | 120 ± 11 µM | 3.61 ± 0.789 kcal/mol | 5.35 ± 0.502 kcal/mol | 8.96 ± 0.621 kcal/mol | 3.9 ± 0.2 | 12 | 6 | 
2 | C[C@H](O)[C@@H](O)[C@@H](O)[C@H](O)C=O [L -Fuc, L-fucose, reference compound] | 3,200 μM | 1 |  | 1 | 362 ± 33 µM | 1 | 1 | 1400 µM | 10.3 ± 0.239 kcal/mol | 3.9 ± 0.096 kcal/mol | 14.2 ± 0.239 kcal/mol |  | 1 | 1 | 3*
